Measured values taken from ChEMBL document CHEMBL4732247, “Discovery of A031 as effective proteolysis targeting chimera (PROTAC) androgen receptor (AR) degrader for the treatment of prostate cancer” (Eur J Med Chem, 2021).
Calls of active or inactive are those of the source. The rule behind the calls is not given here.

How the values were obtained:
[1] = Half life in Sprague-Dawley rat […] at 1 mg/kg, iv measured up to 8 hrs by HPLC-MS analysis; assay type: ADME, organism-based; settings: in vivo
VCaP [2] = assay: Cytotoxicity against human VCaP cells assessed as growth inhibition at 1 uM after 4 days by CCK8 assay relative to control; assay type: functional; settings: 96 h, time 4 day, read-out: GI
[3] = Toxicity in AB zebra fish assessed as toxic phenotype at 6.25 to 25 uM after 5 days relative to control; design: species or system Danio rerio; settings: zebrafish, 120 h, dose 6.25-25 µM, time 5 day
[4] = AUC in Sprague-Dawley rat […] at 1 mg/kg, iv measured up to 8 hrs by HPLC-MS analysis; assay type: ADME, organism-based; design: route intravenous, dose 1 mg/kg, time <=8; settings: in vivo
[5] = target: T1, von Hippel-Lindau disease tumor suppressor/Androgen receptor (Homo sapiens) (UniProt P10275+P40337); assay: Protac activity at VHL3/AR in human VCAP cells assessed as induction of AR degradation at 2 uM by western blot analysis; assay type: cell-based; settings: time 2-4.5 hrs, TDE = time-dependent effect
T1 sequence (P10275 whole entry, looked up): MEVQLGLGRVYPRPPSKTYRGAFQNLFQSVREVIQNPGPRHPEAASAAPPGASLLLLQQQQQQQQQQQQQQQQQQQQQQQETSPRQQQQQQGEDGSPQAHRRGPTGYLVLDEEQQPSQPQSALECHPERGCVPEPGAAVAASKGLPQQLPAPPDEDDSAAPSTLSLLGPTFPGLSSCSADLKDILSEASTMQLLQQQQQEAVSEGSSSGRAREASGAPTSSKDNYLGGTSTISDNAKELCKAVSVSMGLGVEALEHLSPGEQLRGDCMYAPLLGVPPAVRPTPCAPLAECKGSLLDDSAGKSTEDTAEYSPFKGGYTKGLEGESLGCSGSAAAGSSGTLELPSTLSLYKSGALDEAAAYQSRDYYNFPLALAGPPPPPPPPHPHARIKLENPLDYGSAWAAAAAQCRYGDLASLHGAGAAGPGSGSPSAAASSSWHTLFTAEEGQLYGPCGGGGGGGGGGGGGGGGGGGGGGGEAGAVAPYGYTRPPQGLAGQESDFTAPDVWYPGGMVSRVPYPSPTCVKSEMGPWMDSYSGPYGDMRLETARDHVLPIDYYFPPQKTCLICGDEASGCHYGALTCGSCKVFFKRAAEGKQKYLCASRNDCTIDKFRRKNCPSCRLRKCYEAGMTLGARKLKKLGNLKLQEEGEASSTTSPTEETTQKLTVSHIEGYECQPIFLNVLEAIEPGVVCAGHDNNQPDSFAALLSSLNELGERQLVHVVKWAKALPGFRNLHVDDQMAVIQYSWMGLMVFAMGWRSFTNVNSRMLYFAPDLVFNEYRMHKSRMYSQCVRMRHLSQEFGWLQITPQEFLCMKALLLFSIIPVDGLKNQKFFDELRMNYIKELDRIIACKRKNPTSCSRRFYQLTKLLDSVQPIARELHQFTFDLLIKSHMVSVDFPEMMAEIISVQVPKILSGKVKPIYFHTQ
T1 sequence (P40337 whole entry, looked up): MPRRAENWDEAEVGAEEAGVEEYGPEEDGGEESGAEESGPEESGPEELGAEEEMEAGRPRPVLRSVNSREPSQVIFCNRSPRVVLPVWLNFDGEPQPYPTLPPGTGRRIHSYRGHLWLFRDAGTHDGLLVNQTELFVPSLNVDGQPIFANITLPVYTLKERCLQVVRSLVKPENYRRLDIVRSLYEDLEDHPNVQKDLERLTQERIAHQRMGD

[6] = target: T1, von Hippel-Lindau disease tumor suppressor/Androgen receptor (Homo sapiens); assay: Protac activity at VHL3/AR in human VCAP cells assessed as induction of AR degradation at 2 uM after 2 hrs in presence of proteasome inhibitor MG132 by western blot analysis relative to control; assay type: cell-based
VCaP [7] = assay: Antitumour activity against human VcaP cells xenografted in AB zebra fish assessed as tumour growth inhibition at 8.3 uM after 5 days by […] dye based fluorescence microscopic method; assay type: functional; settings: 120 h, time 5 day, read-out: TGI
[8] = Toxicity in AB zebra fish assessed as obvious precipitation at 50 to 100 uM after 5 days; design: species or system Danio rerio; settings: zebrafish, 120 h, dose 50-100 µM, time 5 day
VCaP [9] = assay: Cytotoxicity against human VCaP cells assessed as growth inhibition at 0.125 uM after 4 days by CCK8 assay relative to control; assay type: functional; settings: 96 h, time 4 day, read-out: GI
[10] = Toxicity in AB zebra fish assessed as maximum non-toxic concentration after 5 days; design: species or system Danio rerio; settings: zebrafish, time 5 day, read-out: MTC
VCaP [11] = assay: Antitumour activity against human VcaP cells xenografted in AB zebra fish assessed as tumour growth inhibition at 25 uM after 5 days by […] dye based fluorescence microscopic method; assay type: functional; settings: 120 h, time 5 day, read-out: TGI
[12] = target: T1, von Hippel-Lindau disease tumor suppressor/Androgen receptor (Homo sapiens); assay: Protac activity at VHL3/AR in human VCAP cells assessed as induction of AR degradation at 2 uM after 2 hrs in presence of VHL-3 by western blot analysis; assay type: cell-based
[13] = Toxicity in AB zebra fish assessed as mortality rate at 6.25 to 25 uM after 5 days relative to control; design: species or system Danio rerio; settings: zebrafish, dose 6.25-25 µM, time 5 day
VCaP [14] = assay: Cytotoxicity against human VCaP cells assessed as growth inhibition at 0.25 uM after 4 days by CCK8 assay relative to control; assay type: functional; settings: 96 h, time 4 day, read-out: GI
[15] = target: T1, von Hippel-Lindau disease tumor suppressor/Androgen receptor (Homo sapiens); assay: Protac activity at VHL3/AR in human VCAP cells assessed as induction of AR degradation at 2 uM after 2 hrs by western blot analysis relative to control; assay type: cell-based
[16] = Cmax in Sprague-Dawley rat […] at 1 mg/kg, iv measured up to 8 hrs by HPLC-MS analysis; assay type: ADME, organism-based; design: route intravenous, dose 1 mg/kg, time <=8; settings: in vivo
[17] = target: T1, von Hippel-Lindau disease tumor suppressor/Androgen receptor (Homo sapiens); assay: Protac activity at VHL3//AR in human VCAP cells assessed as induction of AR degradation at 2 uM after 2 hrs in presence of E1 inhibitor MLN4924 by western blot analysis relative to control; assay type: cell-based
VCaP [18] = assay: Antitumour activity against human VcaP cells xenografted in AB zebra fish assessed as tumour growth inhibition at 2.8 uM after 5 days by […] dye based fluorescence microscopic method; assay type: functional; settings: 120 h, time 5 day, read-out: TGI
VCaP [19] = assay: Cytotoxicity against human VCaP cells assessed as growth inhibition at 0.5 uM after 4 days by CCK8 assay relative to control; assay type: functional; settings: 96 h, time 4 day, read-out: GI
[20] = target: T1, von Hippel-Lindau disease tumor suppressor/Androgen receptor (Homo sapiens); assay: Protac activity at VHL3/AR in human VCAP cells assessed as induction of AR degradation at 2 uM after 4.5 hrs by western blot analysis relative to control; assay type: cell-based
VCaP [21] = assay: Cytotoxicity against human VCaP cells assessed as growth inhibition after 4 days by CCK8 assay; assay type: functional, cell-based; settings: dose 0.032-4 µM, time 4.0 day
VCaP [22] = assay: Cytotoxicity against human VCaP cells assessed as growth inhibition at 0.16 uM after 4 days by CCK8 assay relative to control; assay type: functional; settings: 96 h, time 4 day, read-out: GI
VCaP [23] = assay: Cytotoxicity against human VCaP cells assessed as growth inhibition at 0.8 uM after 4 days by CCK8 assay relative to control; assay type: functional; settings: 96 h, time 4 day, read-out: GI
VCaP [24] = assay: Cytotoxicity against human VCaP cells assessed as growth inhibition at 4 uM after 4 days by CCK8 assay relative to control; assay type: functional; settings: 96 h, time 4 day, read-out: GI
VCaP [25] = assay: Cytotoxicity against human VCaP cells assessed as growth inhibition at 0.032 uM after 4 days by CCK8 assay relative to control; assay type: functional; settings: 96 h, time 4 day, read-out: GI
VCaP [26] = assay: Antitumour activity against human VcaP cells xenografted in AB zebra fish assessed as tumour growth inhibition at 5 uM after 5 days by CM-D11 dye based fluorescence microscopic method; settings: 120 h, read-out: TGI
[27] = Toxicity in AB zebra fish assessed as mortality rate at 5 uM after 5 days relative to control; design: species or system Danio rerio; settings: zebrafish, time 5 day
[28] = Toxicity in AB zebra fish assessed as mortality rate at 10 to 200 uM after 5 days relative to control; design: species or system Danio rerio; settings: zebrafish, dose 10-200 µM, time 5 day
[29] = Toxicity in AB zebra fish assessed as rolled over at 5 uM after 5 days relative to control; design: species or system Danio rerio; settings: zebrafish, 120 h, time 5 day

For `Cc1ncsc1-c1ccc([C@H](C)NC(=O)[C@@H]2C[C@@H](O)CN2C(=O)[C@@H](NC(=O)COCCN2CCN(c3ncc(C(=O)N4[C@@H]5CC[C@H]4C[C@@H](Oc4ccc(C#N)c(Cl)c4)C5)cn3)CC2)C(C)(C)C)cc1`, the half-life [1] was 34.2 min, the inhibition of growth at 1 µM (VCaP [2]) was 69.6% and the Activity [3] was “Non-Toxic”. For the same compound, the AUC at 8 h [4] was 1770 ng·h/mL, the Activity [5] was “Tde” and the Activity [6] was “inactive”. The inhibition in vivo at 8.3 µM (VCaP [7]) was 44%, the Activity [8] was “Toxic” and the inhibition of growth at 0.125 µM (VCaP [9]) was 40.3%. The MNTC at 120 h [10] was 25 µM, the inhibition in vivo at 25 µM (VCaP [11]) was 61% and the Activity [12] was “Active”. The mortality at 120 h [13] was 0%, the inhibition of growth at 0.25 µM (VCaP [14]) was 56.4% and the Activity [15] was “Active”. For the same compound, the Cmax [16] was 14400 ng/mL, the Activity [17] was “inactive” and the inhibition in vivo at 2.8 µM (VCaP [18]) was 28%. For the same compound, the inhibition of growth at 0.5 µM (VCaP [19]) was 66.1% and the Activity [20] was “Active”.

In the case of `N#Cc1ccc(O[C@H]2C[C@H]3CC[C@@H](C2)N3C(=O)c2ccc(N3CCN(CCCCCCCNc4cccc5c4C(=O)N(C4CCC(=O)NC4=O)C5=O)CC3)cc2)cc1Cl` (stereo partly drawn), the “growth inhibition (GI)” value (VCaP [21]) is reported as “Dose-dependent effect”, the inhibition of growth at 0.16 µM (VCaP [22]) is reported as 15.7% and the inhibition of growth at 0.8 µM (VCaP [23]) is reported as 42.4%. It also gave an inhibition of growth at 4 µM (VCaP [24]) of 47.2%.

For `N#Cc1ccc(O[C@H]2C[C@H]3CC[C@@H](C2)N3C(=O)c2ccc(N3CCN(CCCCCCCCNc4cccc5c4C(=O)N(C4CCC(=O)NC4=O)C5=O)CC3)cc2)cc1Cl` (stereo partly drawn), the inhibition of growth at 0.032 µM (VCaP [25]) was 0.07%, the “growth inhibition (GI)” value (VCaP [21]) was “Dose-dependent effect” and the inhibition of growth at 0.16 µM (VCaP [22]) was 22.9%. It also gave an inhibition of growth at 0.8 µM (VCaP [23]) of 41.5% and an inhibition of growth at 4 µM (VCaP [24]) of 51.2%.

`CNC(=O)c1ccc(N2C(=S)N(c3ccc(C#N)c(C(F)(F)F)c3)C(=O)C2(C)C)cc1F` [ENZALUTAMIDE] showed an inhibition in vivo at 5 µM (VCaP [26]) of 49%, a mortality at 120 h, 5 µM [27] of 0% and a mortality at 120 h, up to 200 µM [28] of 100%. The Activity [29] was 10%.

In the case of `N#Cc1ccc(O[C@H]2C[C@H]3CC[C@@H](C2)N3C(=O)c2ccc(N3CCN(CCCCCCCCCNc4cccc5c4C(=O)N(C4CCC(=O)NC4=O)C5=O)CC3)cc2)cc1Cl` (stereo partly drawn), the inhibition of growth at 0.032 µM (VCaP [25]) is reported as 15.4%, the “growth inhibition (GI)” value (VCaP [21]) is reported as “Dose-dependent effect” and the inhibition of growth at 0.16 µM (VCaP [22]) is reported as 27.7%. For the same compound, the inhibition of growth at 0.8 µM (VCaP [23]) was 42.5% and the inhibition of growth at 4 µM (VCaP [24]) was 42.1%.
